Columns and labels:
Malme-3M [1] = assay: Cytotoxicity against human MALME-3M cells assessed as cell growth at 10^-5 M after 48 hrs by SRB assay; assay type: functional; details: read-out: Activity
NCI-H23 [2] = assay: Cytotoxicity against human NCI-H23 cells assessed as cell growth at 10^-5 M after 48 hrs by SRB assay; assay type: functional; details: NCI-H23, 48 h, read-out: Activity
[3] = Cytotoxicity against human DU145 cells assessed as cell growth at 10^-4 M after 48 hrs by SRB assay; assay type: functional; details: DU-145, 48 h, read-out: Activity
MDA-MB-231 = assay: Cytotoxicity against human MDA-MB-231 cells assessed as cell growth at 10^-4 M after 48 hrs by SRB assay; assay type: functional; details: MDA-MB-231, 48 h, read-out: Activity
MCF7 = assay: Cytotoxicity against human MCF7 cells assessed as cell growth at 10^-8 M after 48 hrs by SRB assay; assay type: functional; details: MCF7, 48 h, read-out: Activity
SK-MEL-28 = assay: Cytotoxicity against human SK-MEL-28 cells assessed as cell growth at 10^-6 M after 48 hrs by SRB assay; assay type: functional; details: SK-MEL-28, 48 h, read-out: Activity
M14 = assay: Cytotoxicity against human M14 cells assessed as cell growth at 10^-6 M after 48 hrs by SRB assay; assay type: functional; details: M14, 48 h, read-out: Activity
[4] = Cytotoxicity against human SF539 cells assessed as cell growth at 10^-8 M after 48 hrs by SRB assay; assay type: functional; details: SF-539, 48 h, read-out: Activity
NCI-H522 [5] = assay: Cytotoxicity against human NCI-H522 cells assessed as cell growth at 10^-7 M after 48 hrs by SRB assay; assay type: functional; details: NCI-H522, 48 h, read-out: Activity
[6] = Cytotoxicity against human SF539 cells assessed as cell growth at 10^-5 M after 48 hrs by SRB assay; assay type: functional; details: SF-539, 48 h, read-out: Activity
[7] = Cytotoxicity against human UACC62 cells assessed as cell growth at 10^-8 M after 48 hrs by SRB assay; assay type: functional; details: UACC-62, 48 h, read-out: Activity
[8] = Cytotoxicity against human SF295 cells assessed as cell growth at 10^-5 M after 48 hrs by SRB assay; assay type: functional; details: SF-295, 48 h, read-out: Activity
[9] = Cytotoxicity against human HCT116 cells assessed as cell growth at 10^-7 M after 48 hrs by SRB assay; assay type: functional; details: HCT-116, 48 h, read-out: Activity
[10] = Cytotoxicity against human HOP92 cells assessed as cell growth at 10^-7 M after 48 hrs by SRB assay; assay type: functional; details: HOP-92, 48 h, read-out: Activity
NCI-H23 [11] = assay: Cytotoxicity against human NCI-H23 cells assessed as cell growth at 10^-7 M after 48 hrs by SRB assay; assay type: functional; details: NCI-H23, 48 h, read-out: Activity
[12] = Cytotoxicity against human HOP62 cells assessed as cell growth at 10^-6 M after 48 hrs by SRB assay; assay type: functional; details: HOP-62, 48 h, read-out: Activity
[13] = Cytotoxicity against human COLO205 cells assessed as cell growth at 10^-7 M after 48 hrs by SRB assay; assay type: functional; details: COLO 205, 48 h, read-out: Activity
Malme-3M [14] = assay: Cytotoxicity against human MALME-3M cells assessed as cell growth at 10^-7 M after 48 hrs by SRB assay; assay type: functional; details: read-out: Activity
U-251 [15] = assay: Cytotoxicity against human U251 cells assessed as cell growth at 10^-4 M after 48 hrs by SRB assay; assay type: functional; details: U-251, 48 h, read-out: Activity
SK-MEL-5 = assay: Cytotoxicity against human SK-MEL-5 cells assessed as cell growth at 10^-5 M after 48 hrs by SRB assay; assay type: functional; details: SK-MEL-5, 48 h, read-out: Activity
[16] = Cytotoxicity against human Hs 578T cells assessed as cell growth at 10^-8 M after 48 hrs by SRB assay; assay type: functional; details: read-out: Activity
A498 [17] = assay: Cytotoxicity against human A498 cells assessed as cell growth at 10^-4 M after 48 hrs by SRB assay; assay type: functional; details: A498, 48 h, read-out: Activity
[18] = Cytotoxicity against human Caki1 cells assessed as cell growth at 10^-7 M after 48 hrs by SRB assay; assay type: functional; details: CAKI-1, 48 h, read-out: Activity
[19] = Cytotoxicity against human SF295 cells assessed as cell growth at 5 uM after 48 hrs by SRB assay; assay type: functional; details: SF-295, 48 h, read-out: Activity
T47D = assay: Cytotoxicity against human T47D cells assessed as cell growth at 50 uM after 48 hrs by SRB assay; assay type: functional; details: read-out: Activity
A498 [20] = assay: Cytotoxicity against human A498 cells assessed as cell growth at 50 nM after 48 hrs by SRB assay; assay type: functional; details: A498, 48 h, read-out: Activity
NCI-H23 [21] = assay: Cytotoxicity against human NCI-H23 cells assessed as cell growth at 50 uM after 48 hrs by SRB assay; assay type: functional; details: NCI-H23, 48 h, read-out: Activity
[22] = Cytotoxicity against human DU145 cells assessed as cell growth at 50 uM after 48 hrs by SRB assay; assay type: functional; details: DU-145, 48 h, read-out: Activity
[23] = Cytotoxicity against human COLO205 cells assessed as cell growth at 0.5 uM after 48 hrs by SRB assay; assay type: functional; details: COLO 205, 48 h, read-out: Activity
CCRF-CEM = assay: Cytotoxicity against human CCRF-CEM cells assessed as cell growth at 50 nM after 48 hrs by SRB assay; assay type: functional; details: read-out: Activity
[24] = Cytotoxicity against human HL-60(TB) cells assessed as cell growth at 0.5 uM after 48 hrs by SRB assay; assay type: functional; details: HL-60, 48 h, read-out: Activity
[25] = Cytotoxicity against human SF295 cells assessed as cell growth at 0.5 uM after 48 hrs by SRB assay; assay type: functional; details: SF-295, 48 h, read-out: Activity
[26] = Metabolic stability in human liver microsomes assessed as remaining parent compound level at 10 uM after 3 hrs in presence of NAPDH by LC/MS analysis; assay type: ADME; details: read-out: Drug metabolism
[27] = Cytotoxicity against human HOP92 cells assessed as cell growth at 50 nM after 48 hrs by SRB assay; assay type: functional; details: HOP-92, 48 h, read-out: Activity
U-251 [28] = assay: Cytotoxicity against human U251 cells assessed as cell growth at 5 uM after 48 hrs by SRB assay; assay type: functional; details: U-251, 48 h, read-out: Activity
[29] = Cytotoxicity against human SF539 cells assessed as cell growth at 0.5 uM after 48 hrs by SRB assay; assay type: functional; details: SF-539, 48 h, read-out: Activity
NCI-H522 [30] = assay: Cytotoxicity against human NCI-H522 cells assessed as cell growth at 50 uM after 48 hrs by SRB assay; assay type: functional; details: NCI-H522, 48 h, read-out: Activity
NCI-H460 = assay: Cytotoxicity against human NCI-H460 cells assessed as cell growth at 5 nM after 48 hrs by SRB assay; assay type: functional; details: NCI-H460, 48 h, read-out: Activity
[31] = Cytotoxicity against human RPMI8226 cells assessed as cell growth at 0.5 uM after 48 hrs by SRB assay; assay type: functional; details: RPMI-8226, 48 h, read-out: Activity
[32] = Cytotoxicity against human RPMI8226 cells assessed as cell growth at 50 nM after 48 hrs by SRB assay; assay type: functional; details: RPMI-8226, 48 h, read-out: Activity
[33] = Cytotoxicity against human RXF393 cells assessed as cell growth at 5 nM after 48 hrs by SRB assay; assay type: functional; details: RXF 393, 48 h, read-out: Activity
KM12 = assay: Cytotoxicity against human KM12 cells assessed as cell growth at 5 uM after 48 hrs by SRB assay; assay type: functional; details: KM12, 48 h, read-out: Activity

Work on `C/C(=C(/c1ccc(O)cc1)c1ccc(OCCN2CCCC2)cc1)c1ccccc1` yielded a growth at 10 µM (Malme-3M [1]) of -77%, a growth at 10 µM (NCI-H23 [2]) of 29% and a growth at 100 µM [3] of -100%. The growth at 100 µM (MDA-MB-231) was -71%, the growth at 0.01 µM (MCF7) was 44% and the growth at 1 µM (SK-MEL-28) was 85%. For the same compound, the growth at 1 µM (M14) was 91%, the growth at 0.01 µM [4] was 89% and the growth at 0.1 µM (NCI-H522 [5]) was 94%. The growth at 10 µM [6] was -67%, the growth at 0.01 µM [7] was 99% and the growth at 10 µM [8] was -57%. The growth at 0.1 µM [9] was 101%, the growth at 0.1 µM [10] was 102% and the growth at 0.1 µM (NCI-H23 [11]) was 94%. The growth at 1 µM [12] was 98%, the growth at 0.1 µM [13] was 96% and the growth at 0.1 µM (Malme-3M [14]) was 91%. It also gave a growth at 100 µM (U-251 [15]) of -98%, a growth at 10 µM (SK-MEL-5) of -99% and a growth at 0.01 µM [16] of 100%. It also gave a growth at 100 µM (A498 [17]) of -82% and a growth at 0.1 µM [18] of 88%.

Work on `CCCCCCCCCC(=O)Oc1ccc(/C(=C(/C)c2ccccc2)c2ccc(OCCN3CCCC3)cc2)cc1` yielded a growth at 5 µM [19] of 86%, a growth at 50 µM (T47D) of -61% and a growth at 0.05 µM (A498 [20]) of 53%. For the same compound, the growth at 50 µM (NCI-H23 [21]) was -78%, the growth at 50 µM [22] was -99% and the growth at 0.5 µM [23] was 44%. For the same compound, the growth at 0.05 µM (CCRF-CEM) was 100%, the growth at 0.5 µM [24] was 75% and the growth at 0.5 µM [25] was 79%. For the same compound, the remaining at 3 h, 10 µM [26] was 63%, the growth at 0.05 µM [27] was 83% and the growth at 5 µM (U-251 [28]) was 86%. The growth at 0.5 µM [29] was 72%, the growth at 50 µM (NCI-H522 [30]) was -74% and the growth at 0.005 µM (NCI-H460) was 102%. For the same compound, the growth at 0.5 µM [31] was 61%, the growth at 0.05 µM [32] was 100% and the growth at 0.005 µM [33] was 101%. The growth at 5 µM (KM12) was 94%.

Reference: ChEMBL document CHEMBL3774317, “Design and synthesis of novel tamoxifen analogues that avoid CYP2D6 metabolism” (Eur J Med Chem, 2016)
